The results in this text go back to patent publication US11623929B2, “Spirocyclic compounds” (C4 Therapeutics, Inc., priority 2018, dated 2023).

Structures are written as SMILES.

This experiment addresses h-Cereblon_DDB1 (hCereblon(M1-L442)_hDDB1(M1-H1140)) (Homo sapiens (Human), UniProt Q96SW2). Put plainly: Fluorescence direct binding (tryptophan fluorescence titration). As to conditions: 20° C., excitation 280 nm, emission 340 nm, assay buffer 50 mM Hepes 7.4 200 mM NaCl, protein 5.0 E−8 M; read-out: Fluorescence h-Cereblon_DDB1 Mean Kd_EQ. The method, then: Fluorescence Direct Binding Protocol
Determination of the affinities of compounds to protein containing one or more tryptophan is measurable by monitoring the fluorescence emission in direct mode. The measurements depending on the protein available amounts are performed either manually in a cuvette on ISS-PC1 photon counting spectrofluorometer or automatically in well plates on a fluorescence plate reader device. Fluorescence titrations are performed at 20° C. in the chosen binding assay buffer by using a defined constant protein concentration against ligand concentration variations. Small aliquots of known ligand concentration solubilized in DMSO were added and the fluorescence, excited at 280 nm, was recorded at 340 nm. The fluorescence intensity was corrected for protein dilution and for the filter effect (Birdsall, B., et al. (1983). Anal. Biochem. 132, 353-361). The corrected fluorescence intensity was plotted against the ligand concentration and fitted using a four-parameter sigmoidal function, from which the equilibrium dissociation constant Kd was computed using the law of mass action assuming a 1:1 protein-ligand complex (Eftink, Methods Enzymol. 1997; 278:221-57).
The Fluorescence Direct Binding Protocol Process includes:
• 1) Optimization of measurement parameters to minimize protein consumption and to minimize the dilution effect and the DMSO content • 2) Titration measurements of the protein against ligand by at least 12 titration steps to obtain a good s-curve fit • 3) Repeat the same titration measurements with the ligand alone to enable correction • 4) Check the stability of the protein once by titration against DMSO alone • 5) Determination of the molar extinction coefficients of the ligand at 280 and 340 nm with help of an UV-spectrophotometer • 6) Use Excel template for the correction of the measured raw data • 7) Use GraphPad Prism software for the quadratic binding fit and the KD evaluation.

Chain of h-Cereblon_DDB1 (hCereblon(M1-L442)_hDDB1(M1-H1140)) (Q96SW2 whole entry): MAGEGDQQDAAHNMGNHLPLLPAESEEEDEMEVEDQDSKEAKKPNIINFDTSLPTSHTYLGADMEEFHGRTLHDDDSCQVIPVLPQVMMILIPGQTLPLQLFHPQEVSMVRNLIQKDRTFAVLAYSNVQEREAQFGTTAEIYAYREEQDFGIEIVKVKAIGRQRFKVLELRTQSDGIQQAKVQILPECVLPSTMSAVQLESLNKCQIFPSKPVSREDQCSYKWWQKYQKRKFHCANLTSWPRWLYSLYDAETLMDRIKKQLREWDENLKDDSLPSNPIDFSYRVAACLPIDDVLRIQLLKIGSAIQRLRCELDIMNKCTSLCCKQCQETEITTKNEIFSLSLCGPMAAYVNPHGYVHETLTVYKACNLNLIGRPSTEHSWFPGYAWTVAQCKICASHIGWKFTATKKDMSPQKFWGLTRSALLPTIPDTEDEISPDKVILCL
Chain of h-Cereblon_DDB1 (hCereblon(M1-L442)_hDDB1(M1-H1140)) (Q16531 whole entry partner): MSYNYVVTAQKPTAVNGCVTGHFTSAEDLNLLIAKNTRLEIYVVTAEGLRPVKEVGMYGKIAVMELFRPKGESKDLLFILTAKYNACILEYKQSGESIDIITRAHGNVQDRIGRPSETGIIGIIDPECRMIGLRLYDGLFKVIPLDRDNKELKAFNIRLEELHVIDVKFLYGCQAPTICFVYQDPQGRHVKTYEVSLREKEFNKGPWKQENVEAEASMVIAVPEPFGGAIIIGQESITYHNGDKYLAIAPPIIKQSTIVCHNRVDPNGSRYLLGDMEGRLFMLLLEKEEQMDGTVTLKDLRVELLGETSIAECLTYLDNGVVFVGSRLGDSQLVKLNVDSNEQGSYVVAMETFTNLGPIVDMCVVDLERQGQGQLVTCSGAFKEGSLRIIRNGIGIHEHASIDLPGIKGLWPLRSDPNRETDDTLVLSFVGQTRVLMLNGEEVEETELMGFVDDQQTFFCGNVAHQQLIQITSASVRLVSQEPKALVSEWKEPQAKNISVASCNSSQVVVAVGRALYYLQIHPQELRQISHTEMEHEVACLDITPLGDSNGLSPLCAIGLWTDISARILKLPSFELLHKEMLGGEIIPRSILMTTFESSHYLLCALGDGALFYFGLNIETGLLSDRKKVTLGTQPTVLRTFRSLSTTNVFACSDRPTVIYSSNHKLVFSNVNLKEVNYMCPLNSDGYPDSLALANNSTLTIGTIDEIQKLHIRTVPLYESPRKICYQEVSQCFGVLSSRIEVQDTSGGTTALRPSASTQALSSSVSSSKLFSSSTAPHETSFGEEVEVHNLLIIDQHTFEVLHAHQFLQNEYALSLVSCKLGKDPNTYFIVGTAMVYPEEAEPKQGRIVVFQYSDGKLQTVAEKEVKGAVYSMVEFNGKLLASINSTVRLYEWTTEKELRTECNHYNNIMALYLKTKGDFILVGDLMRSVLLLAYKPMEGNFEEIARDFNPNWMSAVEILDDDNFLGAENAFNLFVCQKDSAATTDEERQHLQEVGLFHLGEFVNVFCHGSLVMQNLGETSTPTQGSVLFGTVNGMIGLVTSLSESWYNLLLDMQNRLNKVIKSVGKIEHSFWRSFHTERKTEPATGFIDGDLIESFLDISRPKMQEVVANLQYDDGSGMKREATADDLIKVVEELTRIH

As to `O=C1NC(=O)C2(CCN(C(=O)c3ccccc3)C2)N1` (stereo not drawn) [Example 1, 7-Benzoyl-1,3,7-triazaspiro[4.4]nonane-2,4-dione], the Kd stood at 4 nM. For `O=C1NC(=O)C2(CCN(C(=O)[C@H]3CCCc4ccccc43)C2)N1` (stereo partly drawn) [Example 2, 7-((S)-1,2,3,4-Tetrahydronaphthalene-1-carbonyl)-1,3,7-triazaspiro[4.4]nonane-2,4-dione] the value was 3 nM.

Regarding `O=C1NC(=O)C2(CCN(c3nc4ccccc4s3)C2)N1` (stereo not drawn) [Example 3, 7-(Benzo[d]thiazol-2-yl)-1,3,7-triazaspiro[4.4]nonane-2,4-dione], the Kd was 31 nM. For `O=C1NC(=O)C2(CCN(C(=O)c3cnn4ccccc34)C2)N1` (stereo not drawn) [Example 4, 7-(Pyrazolo[1,5-a]pyridine-3-carbonyl)-1,3,7-triazaspiro[4.4]nonane-2,4-dione] the value was 37 nM; for `COC(=O)c1ccc(N2CCC3(C2)NC(=O)NC3=O)nc1` (stereo not drawn) [Example 5, Methyl 6-(2,4-dioxo-1,3,7-triazaspiro[4.4]nonan-7-yl)nicotinate], 2 nM; for `CC(=O)Nc1cccc(C(=O)N2CCC3(C2)NC(=O)NC3=O)c1` (stereo not drawn) [Example 6, N-(3-(2,4-Dioxo-1,3,7-triazaspiro[4.4]nonane-7-carbonyl)phenyl)acetamide], 10 nM. `CC(=O)Nc1ccc(C(=O)N2CCC3(C2)NC(=O)NC3=O)cc1` (stereo not drawn) [Example 7, N-(4-(2,4-Dioxo-1,3,7-triazaspiro[4.4]nonane-7-carbonyl)phenyl)acetamide]: the Kd amounted to 161 nM. As to `O=C1NC(=O)C2(CCN(c3nc4ncccc4s3)C2)N1` (stereo not drawn) [Example 8, 7-(Thiazolo[4,5-b]pyridin-2-yl)-1,3,7-triazaspiro[4.4]nonane-2,4-dione], the Kd is 7 nM.

Regarding `O=C1NC(=O)C2(CCN(C(=O)c3ccc4scnc4c3)C2)N1` (stereo not drawn) [Example 9, 7-(Benzo[d]thiazole-5-carbonyl)-1,3,7-triazaspiro[4.4]nonane-2,4-dione], the Kd stood at 32 nM. Under `COC(=O)c1ccc(N2CCC3(CC(=O)NC3=O)C2)nc1` (stereo not drawn) [Example 10, Methyl 6-(6,8-dioxo-2,7-diazaspiro[4.4]nonan-2-yl)nicotinate] stands 10 nM. Under `O=C1CC2(CCN(c3nc4ccccc4s3)C2)C(=O)N1` (stereo not drawn) [Example 11, 7-(Benzo[d]thiazol-2-yl)-2,7-diazaspiro[4.4]nonane-1,3-dione] stands 18 nM; under `O=C1CC2(CCN(C(=O)c3cnn4ccccc34)C2)C(=O)N1` (stereo not drawn) [Example 12, 7-(Pyrazolo[1,5-a]pyridine-3-carbonyl)-2,7-diazaspiro[4.4]nonane-1,3-dione], 6 nM. For `O=C1CC2(CCN(C(=O)c3ccccc3)C2)C(=O)N1` (stereo not drawn) [Example 13, 7-Benzoyl-2,7-diazaspiro[4.4]nonane-1,3-dione] the value was 15 nM; for `O=C1NC(=O)C2(CCN(C(=O)c3ccc4scnc4c3)C2)N1` (stereo not drawn) [Example 14, 7-(Benzo[d]thiazole-5-carbonyl)-1,3,7-triazaspiro[4.4]nonane-2,4-dione], 26 nM.

With `O=C1NC(=O)C2(CCN(C(=O)c3ccc4scnc4c3)C2)N1` (stereo not drawn) [Example 15, 7-(Benzo[d]thiazole-5-carbonyl)-1,3,7-triazaspiro[4.4]nonane-2,4-dione], the Kd is 23 nM.
